From publication PMC6669608, “Evaluation of Oxasqualenoids from the Red Alga Laurencia viridis against Acanthamoeba” (Marine Drugs, 2019)

How the values were obtained:
A. castellanii Neff [1] = experiment: Intracellular ROS production (CellROX Deep Red); format: cell-based, Acanthamoeba castellanii Neff; conditions: IC90, 24 h
Method: Generation of intracellular ROS was detected using the CellROX® Deep Red fluorescent probe (Invitrogen, Thermo Fisher Scientific Inc., Waltham, MA, USA). The cells were treated with IC90 of DT for 24 h and exposed to CellROX® Deep Red (5 μM, 30 min) at 26 °C in the dark.

[2] = system: A. castellanii Neff trophozoites; experiment: Plasma membrane permeability (SYTOX Green); format: cell-based, Acanthamoeba castellanii Neff; conditions: IC90, 24 h
Method: The SYTOX Green assay was performed to detect alterations of the membrane permeability in treated cells. Briefly, 10^5 trophozoites were washed and incubated in saline solution with the SYTOX Green at a final concentration of 1 μM (Molecular Probes) for 15 min in the dark. Subsequently, DT solution was added (IC90).

[3] = system: Acanthamoeba griffini trophozoites; experiment: In vitro activity against trophozoites of clinical strain A. griffini; format: cell-based, genotype T3; conditions: trophozoite stage
Method: (§1) Subsequently, DT was tested against two clinical isolates, A. griffini, genotype T3 obtained in a previous study and A. polyphaga genotype T4 ATCC 30461. Those strains were grown axenically in the same medium as A. castellanii Neff.
(§2) The in vitro activities of the different compounds of Laurencia were evaluated using a previously developed colorimetric assay based on the alamarBlue™ Cell Viability Reagent assay (Life Technologies, Barcelona, Spain). Briefly, 50 µL of 5 × 10⁴ trophozoites/mL were seeded onto a 96-well microtiter plate. After 15 min, the adherence of the cells to the plate bottom was confirmed by the use of the inverted microscope Leica DMIL (Leica, Wetzlar, Germany). Furthermore, 50 µL of serial dilutions of each compound was added to the 96-well microtiter plate. Finally, alamarBlue™ was placed into each well at 10% of the final volume and incubated at 26 °C with slight agitation. After 96 h, the fluorescence was measured with EnSpire Multimode Plate Reader (Perkin Elmer, Madrid, Spain) at a wavelength of 570/585 nm. The inhibitory concentration to inhibit the growth of 50% of the parasites (IC50) was calculated through nonlinear regression analysis with 95% confidence limits using the software Sigma Plot 12.0 (Systat Software Inc., London, UK). The experiments were performed three times each, allowing for standard deviation.

A. castellanii = experiment: Measurement of ATP levels (CellTiter-Glo); format: cell-based, Acanthamoeba castellanii; conditions: IC90, 24 h
Method: The ATP level was measured using a Cell Titer-Glo® Luminescent Cell Viability Assay (Promega, Alcobendas, Madrid). This required adding a single reagent (CellTiter-Glo® Reagent, Promega, Alcobendas, Madrid), which relies on the properties of a proprietary thermostable luciferase, generating a stable proportional luminescent signal to the amount of ATP present, which is directly proportional to the number of cells present in culture. After incubation, treated amoebas were mixed with the kit reagent into a white-wall 96-well microtiter plate (Nunc; Thermo Fisher Scientific Inc., Waltham, MA, USA) following the manufacturer’s instructions for measurement of the luminescence on a PerkinElmer spectrophotometer. The effect of the drug on the ATP production was evaluated by incubating 10^5 cells/mL with the previously calculated IC90 of DT following the manufacturer´s recommendations. As a negative control, an A. castellanii culture incubated with PYG medium was used.

[4] = system: Acanthamoeba polyphaga trophozoites; experiment: In vitro activity against trophozoites of clinical strain A. polyphaga; format: cell-based, Acanthamoeba polyphaga genotype T4 ATCC 30461; conditions: trophozoite stage
Method: as §1, §2

[5] = Cytotoxicity assay (alamarBlue); format: cell-based, murine; conditions: mouse; 24 h, 37 °C; read-out: CC50, toxicity against murine macrophage J774.A1
Method: The antiamoeboid activity of the compounds was evaluated against Acanthamoeba castellanii Neff (ATCC 30010) type strain from the American Type Culture Collection. This strain was axenically incubated in PYG medium (0.75% (w/v) proteose Peptone, 0.75% (w/v) Yeast extract, and 1.5% (w/v) Glucose) supplemented with 10 µg/mL gentamicin (Sigma-Aldrich, Madrid, Spain). As for the cytotoxicity assays, murine macrophages J774A.1 (ATCC TIB-67) were used, cultivated in DMEM medium (Dulbecco’s modified eagle medium, Gibco Life Technologies, California, USA) with 10% supplement of fetal bovine serum (FBS) and 10 µg/mL gentamicin at 37 °C in a 5% CO2 incubator.
The cytotoxicity of the tested compounds was determined in vitro with murine macrophages (J774A.1). For this assay, the DMEM culture medium was changed from RPMI without phenol red (Roswell Park Memorial Institute, Thermo Fisher Scientific Inc., Waltham, MA, USA) to L-Glutamine supplemented with 10% (v/v) inactivated FBS and with 10 µg/mL gentamicin. In this assay, the macrophages were counted and seeded into a 96-well microtiter plate, adding 50 µL to each well from a stock solution of 2 × 10^5 cells/mL. Cells were then left to adhere for 15 min to the plate bottom and were checked with the inverted microscope Leica DMIL. After that, 50 µL of a serial dilution of the compounds was added to the 96-well microtiter plate. Finally, alamarBlue™ was added into each well at an amount equal to 10% of the final volume and incubated at 37 °C in the presence of CO2 at 5% for 24 h. After this period of time, as in the in vitro anti-Acanthamoeba assay, the fluorescence was determined with an EnSpire Multimode Plate Reader (PerkinElmer, Inc, Waltham, MA, USA) at a wavelength of 570/585 nm. The cytotoxicity concentration to inhibit the growth of 50% of murine macrophages (CC50) was calculated through nonlinear regression analysis with 95% confidence limits using the software Sigma Plot 12.0 (Systat Software, Inc, San Jose, CA 95110 USA). Experiments were performed three times each, allowing for standard deviation.

[6] = system: Acanthamoeba castellanii Neff trophozoites; experiment: In vitro activity against Acanthamoeba trophozoites (alamarBlue colorimetric assay); format: cell-based, Acanthamoeba castellanii Neff (ATCC 30010); conditions: 42.5 µM (25 µg/mL)
A. castellanii Neff [7] = experiment: Double-stain assay (Hoechst 33342/PI) for programmed cell death; format: cell-based, Acanthamoeba castellanii Neff; conditions: IC90, 24 h
Method: A double-stain apoptosis detection kit (Hoechst 33342/PI) (GenScript, Piscataway, NJ, USA) and an EVOS FL Cell Imaging System AMF4300 (Life Technologies, Carlsbad, CA, USA) were used. The experiment was carried out by following the manufacturer’s recommendations, and 10^5 cells/well were incubated in a 24-well plate for 24 h with the previously calculated IC90. The double-staining pattern allows the identification of three groups in a cellular population: live cells will show only a low level of fluorescence, cells undergoing programmed cell death (PCD) will show a higher level of blue fluorescence (as chromatin condenses), and dead cells will show low-blue and high-red fluorescence (as the propidium iodide stain enters the nucleus).

C=C(CC[C@H](O)[C@@]1(C)CC[C@H](C(C)(C)O)O1)[C@H]1CC[C@H]2O[C@@H]([C@]3(C)CC[C@@H](Br)C(C)(C)O3)CC[C@]2(C)O1 [Compound 1, dehydrothyrsiferol]
reactive oxygen species (ROS) levels (A. castellanii Neff [1]): increased levels of ROS | plasma membrane permeability (SYTOX Green) [2]: showed plasmatic membrane damage | IC50 [3]: 56.7 ± 2.09 µM | ATP level maintained after treatment (A. castellanii): 19.52% | decrease in the total ATP level in comparison to the negative control (A. castellanii): 80.48% | IC50 [4]: 73.4 ± 4.02 µM | CC50 [5]: 28.8 ± 3.1 µM | inhibitory effect on the growth of A. castellanii trophozoites (microscopy) [6]: many of the treated cells were dead | chromatin condensation (Hoechst 33342/propidium iodide double stain) (A. castellanii Neff [7]): induce chromatin condensation
